For assay [1], the target named is CDK2 (Homo sapiens (Human), UniProt P24941). The assay is described as follows: CDK2 NanoBiT assay (HiBiT-tagged CDK2 degradation). Type of assay: cell-based. The note with it: HEK293, HEK293 clonal line, C-terminal HiBiT tag on CDK2, LgBiT; 24 hours. How it is done:
Example 145. NanoBiT Assay
A HEK293 clonal line with a CRISPR knock-in C-terminal HiBiT tag on CDK2 and stably expressing LgBiT protein was obtained from Promega (Madison, WI). Cells were plated at 5000 cells per well using Multiflo (BioTek) in 384-well white solid bottom plates (Corning, 3570BC) in 25 ul volume in DMEM media (DMEM, high glucose, HEPES, no phenol red (ThermoFisher Scientific, 21063029)) containing 10% FBS (Corning, 35-075-CV), 1% Peniciliin/Streptomycin ((ThermoFisher Scientific, 15140-122), and 1% Endurazine (Nano-Glo Endurazine Live Cell Substrate (Promega, N2571)). Cells were incubated for 16 hours at 37 C, 5% CO2. 75 nL of a compound at 30 μM were dosed into the plate using an Echo® 650 liquid handler (Labcyte). Cells were incubated at 37° C., 5% CO2 for 24 hours and then signal was read on a Pherastar FSX using “LUM plus” optic module.
Analysis was performed in Scinamic (Scinamic, Cambridge, MA). Luminescence response (R) was calculated by the formula: response=100*(S−N)/(P−N) where S is the signal of the well, N and P the mean negative and positive control values respectively of the same plate. The luminescence response was then fitted in Scinamic using a 3-parameter agonist logistic fit (hillslope=1, EC50>0, top/bottom unconstrained).
(HiBiT is a short tag that completes a luciferase, so light tracks the accessible tagged protein.)

In assay [2] the target is CRBN-DDB1 (Homo sapiens (Human), UniProt Q96SW2). The assay can be described thus: CRBN HTRF assay (Cy5-Thalidomide probe displacement). The assay is classed as binding. The note with it: CRBN-DDB1 2.5 nM, Cy5-Thalidomide 100 nM, 30 min; Ki from geometric mean IC50 by Cheng-Prusoff. How it is done:
Compound activity was monitored in a Homogenous Time-Resolved Fluorescence (HTRF) assay using 1-[5-({2-[2-(2-{[2-(2,6-dioxopiperidin-3-yl)-1,3-dioxo-2,3-dihydro-1H-isoindol-4-yl]oxy}acetamido)ethoxy]ethyl}carbamoyl)pentyl]-3,3-dimethyl-2-[(1E,3E)-5-[(2E)-1,3,3-trimethyl-5-sulfo-2,3-dihydro-1H-indol-2-ylidene]penta-1,3-dien-1-yl]-3H-indol-1-ium-5-sulfonate as a fluorescent probe. Biochemical assays were conducted in Greiner white 384 well HiBase plates (Cat. No 784075-25) in 10 μL total volume. A one pot detection solution of CRBN-DDB1 (2.5 nM), Anti-His Terbium Cryptate Gold (1×, PerkinElmer Cat. #: 61HI2TLB), and Cy5-Thalidomide (100 nM, Tenova Cat.: T52461) was prepared in 20 mM HEPES, 20 mM NaCl, 0.2 mM TCEP, 0.2 mM EDTA, and 0.005% Tween20 was dispensed to each assay plate. Compounds were stored in dry, ambient temperatures at 10 mM. A 10-point, 1:3 dilution series was prepared from 10 mM stock concentrations in Echo-compatible LDV plates. 10 nL of each compound dilution series was dispensed into assays wells using an Echo 650 (Labcyte inc. USA). 10 nL of 10 mM Lenalidomide was transferred into the active-control wells for the assay and 10 nL of DMSO was transferred into the neutral-control wells. The assay was then allowed to incubate for 30 min at ambient temperature after transferring compound. Plate measurements were taken on a Pherastar FSX (BMG Labtech, Germany) using the HTRF Red filter (Ex. 337 nm, em1: 620 nm, em2: 665 nm) (Flashes: 50, Integration time: 60-400 us, Z-height: 10 mm, Ratio-multiplier: 10,000). The HTRF signal was then subsequently normalized to the neutral and active controls. Analysis and IC50 values were derived using KNIME analytics (KNIME Zurich) transformation and fitting within Collaborative Drug Discovery (Collaborative Drug Discovery USA). Ki was derived from the geometric mean of the IC50 values using the Cheng-Prustoff transformation.

pKi: −log10 of the molar value.

CRBN-DDB1, sequence (Q96SW2 whole entry): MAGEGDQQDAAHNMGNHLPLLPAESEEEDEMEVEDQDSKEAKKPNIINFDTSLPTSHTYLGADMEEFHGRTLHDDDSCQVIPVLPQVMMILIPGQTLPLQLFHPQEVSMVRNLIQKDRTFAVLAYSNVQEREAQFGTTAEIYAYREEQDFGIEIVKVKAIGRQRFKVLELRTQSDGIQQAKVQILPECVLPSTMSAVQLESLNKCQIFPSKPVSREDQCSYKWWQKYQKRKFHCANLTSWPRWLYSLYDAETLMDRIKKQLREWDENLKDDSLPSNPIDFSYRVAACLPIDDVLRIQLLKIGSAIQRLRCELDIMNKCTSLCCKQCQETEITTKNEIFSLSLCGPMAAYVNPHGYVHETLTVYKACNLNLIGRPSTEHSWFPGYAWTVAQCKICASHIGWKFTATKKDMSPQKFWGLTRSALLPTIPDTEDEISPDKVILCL
CRBN-DDB1, sequence (Q16531 whole entry partner): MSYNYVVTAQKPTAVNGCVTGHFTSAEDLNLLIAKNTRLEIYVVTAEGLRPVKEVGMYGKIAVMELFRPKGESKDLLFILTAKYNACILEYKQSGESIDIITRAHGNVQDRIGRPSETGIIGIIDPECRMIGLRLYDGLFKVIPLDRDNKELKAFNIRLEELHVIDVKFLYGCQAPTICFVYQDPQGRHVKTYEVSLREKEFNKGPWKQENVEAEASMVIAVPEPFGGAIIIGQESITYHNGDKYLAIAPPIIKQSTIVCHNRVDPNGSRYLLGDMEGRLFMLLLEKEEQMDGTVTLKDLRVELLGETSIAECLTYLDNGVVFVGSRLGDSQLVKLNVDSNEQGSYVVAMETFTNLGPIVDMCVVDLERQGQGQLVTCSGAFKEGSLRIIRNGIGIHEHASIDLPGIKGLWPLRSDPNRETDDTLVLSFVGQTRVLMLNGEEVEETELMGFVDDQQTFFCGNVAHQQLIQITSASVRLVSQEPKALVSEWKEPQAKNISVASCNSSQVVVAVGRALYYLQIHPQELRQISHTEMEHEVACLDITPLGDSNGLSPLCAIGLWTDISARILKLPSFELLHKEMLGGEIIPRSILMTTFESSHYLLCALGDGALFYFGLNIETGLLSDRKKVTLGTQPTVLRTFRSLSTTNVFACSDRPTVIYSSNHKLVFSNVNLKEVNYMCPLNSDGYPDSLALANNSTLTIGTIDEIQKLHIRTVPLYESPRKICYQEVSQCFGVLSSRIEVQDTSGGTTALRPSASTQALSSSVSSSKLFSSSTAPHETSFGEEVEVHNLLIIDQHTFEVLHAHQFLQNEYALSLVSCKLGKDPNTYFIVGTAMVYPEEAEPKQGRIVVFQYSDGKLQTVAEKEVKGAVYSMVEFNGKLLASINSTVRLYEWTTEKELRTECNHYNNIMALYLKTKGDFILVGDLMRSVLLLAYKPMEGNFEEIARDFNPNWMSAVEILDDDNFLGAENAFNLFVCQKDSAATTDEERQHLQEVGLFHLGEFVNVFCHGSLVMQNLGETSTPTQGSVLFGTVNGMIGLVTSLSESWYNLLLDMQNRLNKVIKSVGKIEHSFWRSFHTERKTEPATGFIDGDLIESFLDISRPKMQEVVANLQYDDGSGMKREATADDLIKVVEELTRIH

As for `N#Cc1c(N2CC(NC(=O)OCC3CC4(CCC4)C3)C2)ccc(C2CCC(=O)NC2=O)c1Cl` (centres unmarked) [Compound 85, spiro[3.3]heptan-2-ylmethyl (1-(3-chloro-2-cyano-4-(2,6-dioxopiperidin-3-yl)phenyl)azetidin-3-yl)carbamate], the Dmax (in general, the greatest extent of degradation seen) in assay [1] was in the range of 50 to 80%.

For the compound `COc1c(N2CC(C)(Nc3nnc(-c4ccc(OC(F)(F)F)cc4)o3)C2)ccc(C2CCC(=O)NC2=O)c1F` (centres unmarked) [Compound 136, 3-(2-fluoro-3-methoxy-4-(3-methyl-3-((5-(4-(trifluoromethoxy)phenyl)-1,3,4-oxadiazol-2-yl)amino)azetidin-1-yl)phenyl)piperidine-2,6-dione], the pKi (as a rule, the negative decadic logarithm of the Ki, by convention in mol/L) in assay [2] is no less than 7.00. In assay [1], this compound showed a Dmax of 50 to 80%.

The compound `CN(C(=O)N1CC(OC(=O)NC2CN(c3cc(F)c(C4CCC(=O)NC4=O)c(F)c3)C2)C1)c1cccc(Cl)c1` (centres unmarked) [Compound 8, 1-((3-chlorophenyl)(methyl)carbamoyl)azetidin-3-yl (1-(4-(2,6-dioxopiperidin-3-yl)-3,5-difluorophenyl)azetidin-3-yl)carbamate] gave a pKi in assay [2] of no less than 7.00. The Dmax in assay [1] is greater than 80%.

`CN(C(=O)N1CC(OC(=O)NC2CN(c3cc(F)c(C4CCC(=O)NC4=O)c(F)c3)C2)C1)c1ccc(F)cc1` (centres unmarked) [Compound 72, 1-((4-fluorophenyl)(methyl)carbamoyl)azetidin-3-yl (1-(4-(2,6-dioxopiperidin-3-yl)-3,5-difluorophenyl)azetidin-3-yl)carbamate] had a pKi in assay [2] of no less than 7.00. The compound further showed a Dmax in assay [1] greater than 80%.

`COc1c(N2CC(C)(NC(=O)OCC3CC4(CCC4)C3)C2)ccc(C2CCC(=O)NC2=O)c1F` (centres unmarked) [Compound 2, spiro[3.3]heptan-2-ylmethyl (1-(4-(2,6-dioxopiperidin-3-yl)-3-fluoro-2-methoxyphenyl)-3-methylazetidin-3-yl)carbamate] had a pKi in assay [2] of 6.00 to 7.00. The Dmax in assay [1] is 50 to 80%.

Compound `COc1c(N2CC(Nc3nnc(-c4ccc(OC(F)(F)F)cc4)o3)C2)ccc(C2CCC(=O)NC2=O)c1F` (centres unmarked) [Compound 90, 3-(2-fluoro-3-methoxy-4-(3-((5-(4-(trifluoromethoxy)phenyl)-1,3,4-oxadiazol-2-yl)amino)azetidin-1-yl)phenyl)piperidine-2,6-dione] had a negative logarithm of the Ki (pKi) in assay [2] of 6.00 to 7.00. In assay [1], this compound yielded a Dmax greater than 80%.

Consider `O=C1CCC(c2c(F)cc(N3CC(NC(=O)OC4CN(C(=O)Cc5ccccc5)C4)C3)cc2F)C(=O)N1` (centres unmarked) [Compound 74, 1-(2-phenylacetyl)azetidin-3-yl (1-(4-(2,6-dioxopiperidin-3-yl)-3,5-difluorophenyl)azetidin-3-yl)carbamate], for which the negative logarithm of the Ki (pKi) in assay [2] was no less than 7.00. This compound showed a Dmax in assay [1] of 50 to 80%.

`Cc1cccc(N(C)C(=O)C23CC(OC(=O)NC4CN(c5cc(F)c(C6CCC(=O)NC6=O)c(F)c5)C4)(C2)C3)c1C` (centres unmarked) [Compound 114, 3-((2,3-dimethylphenyl)(methyl)carbamoyl)bicyclo[1.1.1]pentan-1-yl (1-(4-(2,6-dioxopiperidin-3-yl)-3,5-difluorophenyl)azetidin-3-yl)carbamate] had a pKi in assay [2] of no less than 7.00. The same compound yielded a Dmax in assay [1] of 10 to 50%.

Turning to `O=C1CCC(c2c(F)cc(N3CC(NC(=O)OC4CN(C(=O)N5CCCC5)C4)C3)cc2F)C(=O)N1` (centres unmarked) [Compound 32], the Dmax in assay [1] was 50 to 80%.

`Cc1ccc(C(=O)N2CC(OC(=O)NC3CN(c4cc(F)c(C5CCC(=O)NC5=O)c(F)c4)C3)C2)cc1` (centres unmarked) [Compound 23, 1-(4-methylbenzoyl)azetidin-3-yl (1-(4-(2,6-dioxopiperidin-3-yl)-3,5-difluorophenyl)azetidin-3-yl)carbamate] had a pKi in assay [2] of no less than 7.00. In addition, in assay [1], the Dmax lay in the range of 50 to 80%.

Consider `CN(C)C(=O)C12CC(OC(=O)NC3CN(c4cc(F)c(C5CCC(=O)NC5=O)c(F)c4)C3)(C1)C2` (centres unmarked) [Compound 76, 3-(dimethylcarbamoyl)bicyclo[1.1.1]pentan-1-yl (1-(4-(2,6-dioxopiperidin-3-yl)-3,5-difluorophenyl)azetidin-3-yl)carbamate], for which, in assay [2], the pKi is no less than 7.00. For the same compound, in assay [1], the Dmax was in the range of 10 to 50%.

In assay [2], `COc1cccc(N(C)C(=O)C23CC(OC(=O)NC4CN(c5cc(F)c(C6CCC(=O)NC6=O)c(F)c5)C4)(C2)C3)c1` (centres unmarked) [Compound 130, 3-((3-methoxyphenyl)(methyl)carbamoyl)bicyclo[1.1.1]pentan-1-yl (1-(4-(2,6-dioxopiperidin-3-yl)-3,5-difluorophenyl)azetidin-3-yl)carbamate] had a pKi of no less than 7.00. This compound also gave a Dmax in assay [1] of 50 to 80%.

For the compound `COc1c(N2CC(C)(Nc3nnc(C4CC5(CCC5)C4)o3)C2)ccc(C2CCC(=O)NC2=O)c1F` (centres unmarked) [Compound 121, 3-(2-fluoro-3-methoxy-4-(3-methyl-3-((5-(spiro[3.3]heptan-2-yl)-1,3,4-oxadiazol-2-yl)amino)azetidin-1-yl)phenyl)piperidine-2,6-dione], the pKi in assay [2] was no less than 7.00. The same compound came in with a Dmax in assay [1] of 10 to 50%.

In turn, `CN(C(=O)N1CC(OC(=O)NC2CN(c3cc(F)c(C4CCC(=O)NC4=O)c(F)c3)C2)C1)c1ccccc1` (centres unmarked) [Compound 17, 1-(methyl(phenyl)carbamoyl)azetidin-3-yl (1-(4-(2,6-dioxopiperidin-3-yl)-3,5-difluorophenyl)azetidin-3-yl)carbamate] gave a pKi in assay [2] of no less than 7.00. In addition, in assay [1], the Dmax was 50 to 80%.

For `Cc1ccc(C)c(N(C)C(=O)C23CC(OC(=O)NC4CN(c5cc(F)c(C6CCC(=O)NC6=O)c(F)c5)C4)(C2)C3)c1` (centres unmarked) [Compound 111], in assay [1], the Dmax was in the range of 50 to 80%.

`Cc1ccnc(N2CC(OC(=O)NC3CN(c4cc(F)c(C5CCC(=O)NC5=O)c(F)c4)C3)C2)c1` (centres unmarked) [Compound 6, 1-(4-methylpyridin-2-yl)azetidin-3-yl (1-(4-(2,6-dioxopiperidin-3-yl)-3,5-difluorophenyl)azetidin-3-yl)carbamate] displayed a Dmax in assay [1] of 50 to 80%.

As for `[2H]C([2H])([2H])N(C(=O)N1CC(OC(=O)NC2CN(c3cc(F)c(C4CCC(=O)NC4=O)c(F)c3)C2)C1)c1ccc(C)cc1` (centres unmarked) [Compound 118, 1-((methyl-d3)(p-tolyl)carbamoyl)azetidin-3-yl (1-(4-(2,6-dioxopiperidin-3-yl)-3,5-difluorophenyl)azetidin-3-yl)carbamate], the pKi in assay [2] is no less than 7.00.

Consider `O=C1CCC(c2c(F)cc(N3CC(NC(=O)OCC4CC5(CCC5)C4)C3)cc2F)C(=O)N1` (centres unmarked) [Compound 1, spiro[3.3]heptan-2-ylmethyl (1-(4-(2,6-dioxopiperidin-3-yl)-3,5-difluorophenyl)azetidin-3-yl)carbamate], for which, in assay [1], the Dmax was greater than 80%.

In the case of `Cc1cccc(N(C)C(=O)N2CC(OC(=O)NC3CN(c4cc(F)c(C5CCC(=O)NC5=O)c(F)c4)C3)C2)c1` (centres unmarked) [Compound 10, 1-(methyl(m-tolyl)carbamoyl)azetidin-3-yl (1-(4-(2,6-dioxopiperidin-3-yl)-3,5-difluorophenyl)azetidin-3-yl)carbamate], the Dmax in assay [1] is greater than 80%.

Regarding `[2H]C([2H])([2H])N(C(=O)N1CC(OC(=O)NC2CN(c3cc(F)c(C4CCC(=O)NC4=O)c(F)c3)C2)C1)c1ccc(Cl)cc1` (centres unmarked) [Compound 119, 1-((4-chlorophenyl)(methyl-d3)carbamoyl)azetidin-3-yl (1-(4-(2,6-dioxopiperidin-3-yl)-3,5-difluorophenyl)azetidin-3-yl)carbamate], the pKi in assay [2] is no less than 7.00.
